From paper PMC10343752, “Anti-α-Glucosidase, SAR Analysis, and Mechanism Investigation of Indolo[1,2-b]isoquinoline Derivatives” (Molecules, 2023) come the findings set out here.

Series [1] has as its target T1, α-glucosidase from Saccharomyces cerevisiae (Saccharomyces cerevisiae, UniProt P53341).
T1 construct: purchased Sigma-Aldrich
In words: biochemical. The class given is biochemical. The settings on record: for IC50: α-glucosidase 0.1 U/mL, PNPG 0.25 mM, pH 6.8, 37 °C, read-out: α-Glucosidase inhibitory activity IC50. As for the experimental part:
(§1) α-Glucosidase from Saccharomyces cerevisiae (EC 3.2.1.20) was purchased from Sigma-Aldrich. p-Nitrophenyl-α-D-[…] (PNPG) was obtained from Abcam. Other reagents were commercially available.
After the addition of PNPG (0.25 mM), the change in absorbance was measured at 405 nm. […] All experiments were performed four times.

Series [2] addresses T2, α-glucosidase (Saccharomyces cerevisiae, UniProt P53341).
T2 construct: purchased Sigma-Aldrich
In words: 3D fluorescence spectra of α-glucosidase with compounds. The class given is binding. The settings on record: α-glucosidase 5 μM.
Excerpt: The 3D fluorescence spectra of α-glucosidase with compounds 9, 11, 13, 18, and 19 was investigated to analyze the effect of compounds on the structure of α-glucosidase, respectively. Two important characteristic peaks appeared in the 3D fluorescence spectra of α-glucosidase (Figure 6a,c,e,g,i), including Peak 1 ([…]), corresponding to the main chain structure of the polypeptide, and Peak 2 ([…]), corresponding to tyrosine and tryptophan residues. […] (Figure 6b,d,f,h,j). Previously, 3D fluorescence spectra have been used to determine protein conformation changes.
as §1
Compounds 9, 11, 13, 18, and 19 were added to α-glucosidase (5 μM) in 100 μL of PBS and incubated for 5 min, then the 3D fluorescence spectra of the mixture were recorded [32]^. The excitation and emission wavelengths were 200–500 nm and the slit width was 2.5 nm. All data were imported into Matlab for processing.

Series [3] has as its target T2, α-glucosidase. Nature of the series: CD spectra, secondary structure contents of α-glucosidase. The class given is binding. The conditions noted are these: for effect on CD band intensity of α-glucosidase: 190~280 nm.
Excerpt: CD spectra were also monitored to study the effect of compounds 9, 11, 13, 18, and 19 on the conformational changes of α-glucosidase. As shown in Figure 7a–e, α-glucosidase presented two negative CD bands in the region of 190~280 nm, which was owed to the electronic transitions of n→π* of α-helical bonds. […] While treatment of compounds 9, 13, 18, and 19 led to an increase of α-helix and a reduction of β-sheet, β-turn, and random coils, respectively (Table 3). CD spectra have been an important method by which to study protein structural changes and secondary structural content. Previous research has shown that the interaction of an inhibitor with α-glucosidase caused the partial folding and loosening of the α-glucosidase structure.
as §1
Compounds 9, 11, 13, 18, and 19 with different concentrations were added into α-glucosidase solution (31 μM) and incubated for 5 min, respectively, then the CD spectra of the mixture were recorded. CDNN was used to analyze the ratio of protein secondary conformations.

Series [4] relates to hepatocytes LO2 cells. Nature of the series: In vitro cytotoxicity, MTT method. The class given is cell-based. The conditions noted are these: 24 h, up to a concentration of 32 μM. The protocol: The in vitro cytotoxicity of compounds 9, 11, 13, 18, and 19 against hepatocytes LO2 cells was detected using the MTT method.
The in vitro cytotoxicity of compound 11 against hepatocytes LO2 cells was assayed using the MTT method. LO2 cells were cultured in DMEM containing 10% FBS, 100 IU/mL penicillin, and 100 IU/mL streptomycin at 37 °C under 5% CO2. An amount of 100 μL of LO2 cells was seeded into a 96-well plate (5000 per well) for 24 h, and was then treated with compounds 9, 11, 13, 18, and 19 for 24 h, respectively. Then, MTT solution was added into each well and incubated for 4 h. An amount of […] of DMSO was used to dissolve the obtained crystallization. Then, this absorbance was determined at 490 nm. Each sample was performed in triplicate.
(Tetrazolium assays rely on reduction of a dye to a coloured formazan, in cell work by metabolically active cells.)

In series [5] the target is T2, α-glucosidase. In words: α-glucosidase inhibition kinetics (enzyme kinetics and Lineweaver-Burk substrate kinetics). Type of series: biochemical. The settings on record: for inhibition type (substrate kinetics): Lineweaver-Burk plots; for Ki / Kis / Vmax: inhibition kinetics constant; for reversibility of inhibition (enzyme kinetics): plots of remaining enzyme activity versus enzyme concentration.
Excerpt: Compounds 9, 11, 13, 18, and 19 with different α-glucosidase inhibitory activity were selected as representative compounds to reveal the inhibition mechanism of indolo[1,2-b]isoquinoline derivatives (1–21) on α-glucosidase by the implementation of an inhibition kinetics study. […] For substrate kinetics (Figure 5b,d,f,h,j), the Lineweaver-Burk plots of remaining enzyme activity versus […] treated with compounds 9, 11, 13, 18, and 19 intersected at one point in the second quadrant, respectively. The inhibition kinetics study was an effective method by which to understand the inhibition mechanism of the inhibitor against the target protein. In a substrate kinetics study, different inhibition mechanisms of inhibitors manifested as different intersection positions of Lineweaver-Burk plots. […] Moreover, compounds 9, 11, 13, 18, and 19 bind with both free enzyme and enzyme-substrate complexes to inhibit α-glucosidase. The inhibition kinetics constants of compounds 9, 11, 13, 18, and 19 were obtained and are listed in Table 2, including Ki, Kis, Km, and Vmax values, which might be helpful to understand the inhibition mechanism.
as §1
The kinetics of enzyme inhibition for compounds 9, 11, 13, 18, and 19 were obtained by plotting the enzymatic reaction rate versus enzyme concentration with or without compounds 9, 11, 13, 18, and 19, and the kinetics of substrate inhibition were measured using Lineweaver Burk plots of the enzymatic reaction rate versus substrate concentration with or without compounds 9, 11, 13, 18, and 19 [37, 38, 39, 40].

[6] abbreviates: molar ratio [α-Glu]:[Comp.] 1:1.
Setting [7] is: molar ratio [α-Glu]:[Comp.] 1:2.
[8] abbreviates: molar ratio [α-Glu]:[Comp.] 1:3.

T2 sequence (P53341 whole entry): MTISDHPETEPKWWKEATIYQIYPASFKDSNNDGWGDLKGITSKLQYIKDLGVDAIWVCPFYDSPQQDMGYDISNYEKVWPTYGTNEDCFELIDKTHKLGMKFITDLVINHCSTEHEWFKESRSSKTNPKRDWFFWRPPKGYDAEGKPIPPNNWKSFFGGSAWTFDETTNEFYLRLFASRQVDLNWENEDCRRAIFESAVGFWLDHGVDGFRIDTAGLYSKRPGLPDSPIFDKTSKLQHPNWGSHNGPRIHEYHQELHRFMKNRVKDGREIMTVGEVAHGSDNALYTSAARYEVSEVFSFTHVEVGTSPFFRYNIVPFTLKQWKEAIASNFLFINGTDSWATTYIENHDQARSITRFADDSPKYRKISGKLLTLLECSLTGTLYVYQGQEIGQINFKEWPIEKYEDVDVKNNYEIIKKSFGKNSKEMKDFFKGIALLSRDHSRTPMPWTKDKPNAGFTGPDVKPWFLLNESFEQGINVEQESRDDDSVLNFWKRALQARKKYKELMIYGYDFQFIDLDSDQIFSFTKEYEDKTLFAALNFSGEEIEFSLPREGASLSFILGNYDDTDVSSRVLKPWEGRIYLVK
T1 sequence (P53341 whole entry): as above

With `O=C1c2ccccc2-n2c1c(-c1ccccc1)c1ccccc1c2=O` [Compound 1], the concentration for half-maximal inhibition (IC50) (usually the concentration that gives 50% inhibition) in series [1] was 23.46 ± 0.23 µM.

As to `Cc1ccc(-c2c3n(c(=O)c4ccccc24)-c2ccccc2C3=O)cc1` [Compound 2], the IC50 in series [1] came to 17.4 ± 0.25 µM.

As to `Cc1cccc(-c2c3n(c(=O)c4ccccc24)-c2ccccc2C3=O)c1` [Compound 3], in series [1], the IC50 was found to be 9.25 ± 0.14 µM.

On to `Cc1ccccc1-c1c2n(c(=O)c3ccccc13)-c1ccccc1C2=O` [Compound 4], for which the IC50 in series [1] was 22.3 ± 0.63 µM.

`CCc1ccc(-c2c3n(c(=O)c4ccccc24)-c2ccccc2C3=O)cc1` [Compound 5]: the half-maximal inhibitory concentration (IC50) in series [1] stood at 16.1 ± 0.46 µM.

On to `CC(C)(C)c1ccc(-c2c3n(c(=O)c4ccccc24)-c2ccccc2C3=O)cc1` [Compound 6], for which the half-maximal inhibitory concentration (IC50) in series [1] amounted to 5.76 ± 0.26 µM.

For the molecule `O=C1c2ccccc2-n2c1c(-c1ccc(Cl)cc1)c1ccccc1c2=O` [Compound 7], the IC50 in series [1] was determined as 14.7 ± 0.37 µM.

As for `COc1ccc(-c2c3n(c(=O)c4ccccc24)-c2ccccc2C3=O)cc1` [Compound 8], the IC50 in series [1] amounted to 15.1 ± 0.44 µM.

For the molecule `CN(C)c1ccc(-c2c3n(c(=O)c4ccccc24)-c2ccccc2C3=O)cc1` [Compound 9], the “effect on fluorescence intensity of Peak 1 and Peak 2 of α-glucosidase” value (shortened to “effect on fluorescence intensity”) in series [2] is recorded as “decrease the fluorescence intensity”. For the same molecule, in series [3], the “effect on CD band intensity of α-glucosidase” value (from here on “effect on CD band intensity”) is on record as “decrease in CD band intensity”. In series [3] (setting [6]), the “Rndm Coil” value was 35.10%, the α-Helix was determined as 10.80%, the β-Sheet was 35.60% and the β-Turn is 19.30%. Moreover, in series [3] (setting [7]), the “Rndm Coil” value came out at 34.60%, the α-Helix is 13.00%, the β-Sheet stood at 31.90% and the β-Turn stood at 19.30%. For the same molecule, in series [3] (setting [8]), the “Rndm Coil” value was found to be 33.40%, the α-Helix is given as 13.10%, the β-Sheet turned out to be 31.70% and the β-Turn worked out at 19.10%. Also, the “effect on cell viability” value in series [4] is “no significant effect on cell viability”. Besides, the IC50 in series [1] turned out to be 40.9 ± 0.69 µM. Further, in series [5], the “inhibition type (substrate kinetics)” value is recorded as “mixed-type inhibition”; the Ki (usually a measure of affinity in units of concentration, obtained from inhibition or displacement) came to 30.5 µM; the Kis was 96.19 µM; the Vmax (in general, the top rate of the reaction or transport when substrate is in excess) turned out to be 0.12 µM/min/mg. Moreover, the “reversibility of inhibition (enzyme kinetics)” value (from here on “reversibility of inhibition”) in series [5] is on record as “reversible”.

For the molecule `O=C1c2ccccc2-n2c1c(-c1ccccc1Cl)c1ccccc1c2=O` [Compound 10], the IC50 in series [1] is 12.2 ± 0.46 µM.

Take `O=C1c2ccccc2-n2c1c(-c1ccc3ccccc3c1)c1ccccc1c2=O` [Compound 11]: the “effect on fluorescence intensity” value in series [2] is “decrease the fluorescence intensity”. Besides, the “effect on CD band intensity” value in series [3] is reported as “concentration-dependent increase in the CD band intensity”. In series [3] (setting [6]), the “Rndm Coil” value was 35.60%, the α-Helix amounted to 8.40%, the β-Sheet was 34.30% and the β-Turn is given as 20.00%. Moreover, in series [3] (setting [7]), the “Rndm Coil” value is on record as 35.60%, the α-Helix came to 8.20%, the β-Sheet was found to be 34.70% and the β-Turn amounted to 20.00%. In series [3] (setting [8]), the “Rndm Coil” value amounted to 35.80%, the α-Helix is listed as 7.80%, the β-Sheet amounted to 35.20% and the β-Turn is recorded as 20.10%. For the same molecule, in series [4], the “effect on cell viability” value is given as “no significant effect on cell viability”. In addition, in series [1], the “anti-α-glucosidase activity, times stronger than acarbose” value was ~ 186 times and the half-inhibitory concentration (IC50) came out at 3.44 ± 0.36 µM. Moreover, in series [5], the “inhibition type (substrate kinetics)” value is on record as “mixed-type inhibition”; the affinity, expressed as Ki, was 0.46 µM; the Kis was 14.57 µM; the Vmax was determined as 0.06 µM/min/mg. Also, the “reversibility of inhibition” value in series [5] was “reversible”.

With `COC(=O)c1ccc(-c2c3n(c(=O)c4ccccc24)-c2ccccc2C3=O)cc1` [Compound 12], the IC50 in series [1] came to 32.8 ± 0.72 µM.

Take `O=C1c2cc(Cl)ccc2-n2c1c(-c1ccccc1)c1ccccc1c2=O` [Compound 13]: the “effect on fluorescence intensity” value in series [2] is reported as “decrease the fluorescence intensity”. Besides, in series [3], the “effect on CD band intensity” value was “decrease in CD band intensity”. In series [3] (setting [6]), the “Rndm Coil” value came to 35.60%, the α-Helix worked out at 8.80%, the β-Sheet came to 40.60% and the β-Turn came out at 19.30%. Moreover, in series [3] (setting [7]), the “Rndm Coil” value is on record as 35.40%, the α-Helix worked out at 9.10%, the β-Sheet came out at 39.60% and the β-Turn is 19.40%. In series [3] (setting [8]), the “Rndm Coil” value is on record as 35.10%, the α-Helix is 11.20%, the β-Sheet was 34.60% and the β-Turn is 19.60%. Further, the “effect on cell viability” value in series [4] is “no significant effect on cell viability”. For the same molecule, the IC50 in series [1] came out at 6.35 ± 0.25 µM. In series [5], the “inhibition type (substrate kinetics)” value is “mixed-type inhibition”; the affinity, expressed as Ki, was 3.62 µM; the Kis was found to be 11.65 µM; the Vmax is 0.08 µM/min/mg. Moreover, in series [5], the “reversibility of inhibition” value is listed as “reversible”.

`Cc1ccc2c(c1)-n1c(c(-c3ccccc3)c3ccccc3c1=O)C2=O` [Compound 14]: in series [1], the IC50 was 17 ± 0.37 µM.

Take `O=C1c2ccc(Cl)cc2-n2c1c(-c1ccccc1)c1ccccc1c2=O` [Compound 15]: in series [1], the concentration for half-maximal inhibition (IC50) was determined as 9.25 ± 0.41 µM.

Consider `O=C1c2cc(F)ccc2-n2c1c(-c1ccccc1)c1ccccc1c2=O` [Compound 16], for which, in series [1], the half-inhibitory concentration (IC50) was determined as 10.1 ± 0.36 µM.

For `Cc1ccc2c(=O)n3c(c(-c4ccccc4)c2c1)C(=O)c1ccccc1-3` [Compound 17], the IC50 in series [1] came out at 7.95 ± 0.43 µM.

For `Cc1ccc2c(=O)n3c(c(-c4ccccc4)c2c1)C(=O)c1cc(F)ccc1-3` [Compound 20], the IC50 in series [1] turned out to be 11.9 ± 0.36 µM.
